Data on 1 compound can be found in patent US6316423A, “Method of treating ischemic, hypoxic and anoxic brain damage” (priority 1999, dated 2001).

Holding throughout (assay type): in vivo, gerbil
Experiment [1] concerns gerbils exposed to 10 minutes of brain ischemia. Briefly: Mortality after 10 min ischemia, preischemic ADAC. To be noted: 0.1 mg/kg preischemic, entire monitoring period (14 days); control 60%. On the procedure:
Seven control animals out of 20 (35%) died during the initial 12 hour period following 10 minutes of ischemia. Three additional control gerbils died between day 1 and 3, and 2 additional animals died 5-8 hours following a water maze trial by day 14. Thus, the overall death rate of the control group was 60%. In contrast, in the ADAC-treated group only 2 animals out of 10 died (20%) during the entire monitoring period, one on day 3 and one on day 6.
(§1) Prior to subjecting the gerbils to 10 minutes of ischemia, the gerbils were randomly divided into the control and the drug testing groups. […] During post-ischemic recovery, animals were monitored each day for signs of functional damage (e.g., pareses) that might affect their subsequent water maze performance. Postischemic mortality was also monitored every day.

Experiment [2] deals with gerbils subjected to 10 minutes of ischemia. Briefly: Open field locomotor activity 7 days after ischemia. To be noted: preischemic ADAC, 10 minute period, control 235±3 cm, P<0.001. The protocol: as §1
Since locomotor hyperactivation may result in a spurious improvement of performance in the water maze (von Lubitz et al., 1993, supra), open field activity of all gerbils was assessed 7 days after the occlusion (i.e., one day prior to the water maze experiments). During locomotor testing, horizontal displacement of each gerbil was monitored in 2 minute epochs for 10 minutes using a Digiscan activity monitor (available from Omnitech Electronics, Colombus, Ohio).

The test system is the same in experiment [3]. Description: Postischemic Morris water maze test (spatial memory). The protocol:
The Morris water maze (Morris et al., supra) is now considered the most direct means of assessing post-ischemic memory and learning of spatially oriented tasks (Corbett et al., Neuroreport, 3, 204 (1992)). This test is well known in the art and the specific parameters of this test as used herein are defined below. Female gerbils (Tumblebrook Farms, Mass.) weighing 70 g were used in the study. Prior to inclusion in the experiments, animals were tested for susceptibility to spontaneous seizures using the method described by Lee et al., Neuropharmacol., 5, 517 (1984). Seizure-prone gerbils were rejected.
The details of the water maze are known in the art (von Lubitz et al., 1993 supra). Briefly, the system consists of a tank (1 m diameter) which is filled with opaque water to a depth of 30 cm. The tank contains a colorless target platform (15 cm diameter) submerged to a depth of 1.5 cm and placed in the center of the north-west quadrant. […]
as §1

The subject of experiment [4] is cortex, hippocampal CA1 sector, and striatum. Briefly: Nissl histology of neuronal loss, preischemic ADAC. To be noted: two weeks after ischemia. The protocol: The gerbils of Example 3 were subjected to examination procedures subsequent to the water maze tests described in Example 3. One day after the last postischemic water maze trial, all animals were heavily anesthetized with Nembutal and perfused through the aorta with buffered (pH 7.4) formaldehyde. Frozen sections of the brains were made as described previously (Lin et al., supra). The sections were stained using the method of Nissl, and the extent of the neuronal loss was determined in the cortex, hippocampal CA1 sector, and striatum following the published protocol of von Lubitz et al. (von Lubitz, 1992, supra; von Lubitz, 1994, supra).

The test system of experiment [5] is gerbils exposed to 10 minutes of ischemia. Description: Survival rate following 10 minutes of ischemia, postischemic ADAC. The protocol: In the three remaining treatment groups (i.e., 3, 6, and 12 hours) numerical improvement was apparent, but statistical significance of (P<0.05) was lost probably owing to the sample sizes. […] To prevent selection of overly robust animals into these groups, the data were not normalized to account for pre-treatment mortalities.

The subject of experiment [6] is gerbils exposed to 10 minutes of brain ischemia. Description: Dose-response of preischemic ADAC on survival after 10 minutes of ischemia. To be noted: 15 min preischemia, control 40%. From the text:
This higher selectivity results in lower quantities of drug administration required for maximum neuroprotection. Lower administered quantities in turn, result in attenuation or elimination of side-effects.

The test system is the same in experiment [7]. Description: Chronic ADAC treatment followed by 10 minutes of ischemia. To be noted: 0.025, 0.050 or 0.075 mg for 60 days, one day rest. The protocol: The gerbils were then subjected to 10 minutes of brain ischemia and allowed to recover.
The mark [8] stands for this setting: 0.1 mg/kg ADAC 15 min post ischemia.
Setting [9] is: 0.1 mg/kg ADAC 30 min post ischemia.
Where [10] appears, read: 0.1 mg/kg ADAC 2 hour post ischemia.
Where [11] appears, read: 0.1 mg/kg ADAC 3 hour post ischemia.
[12] abbreviates: 0.1 mg/kg ADAC 6 hour post ischemia.
Where [13] appears, read: 0.1 mg/kg ADAC 12 hour post ischemia.

The compound `NCCNC(=O)Cc1ccc(NC(=O)Cc2ccc(Nc3ncnc4c3ncn4[C@@H]3O[C@H](CO)[C@@H](O)[C@H]3O)cc2)cc1` [ADAC] came in with a death rate in experiment [1] of 20%. In addition, in experiment [2], the “open field activity (horizontal displacement)” value is 135±6 cm. Besides, in experiment [3] (FIG. 2, controls lost all preference), the “preference for target quadrant in postischemic probe trial” value is “retained a high preference for the target quadrant”. Besides, the “recovery of postischemic water maze performance” value in experiment [3] (preischemic ADAC, FIG. 1) is on record as “regained water maze performance levels that mirrored the plateau level obtained in preischemic training almost immediately (trial 2, day 9)”. For the same compound, the “hippocampal CA1 neurons surviving” value in experiment [4] (control 23%) is 81%. Also, the “neuronal loss in cortex and striatum” value in experiment [4] (control 83% (cortex) and 25% (striatum) surviving) is “complete elimination of neuronal loss”. Further, the “Survival Rate 24 h postischemia” value in experiment [5] (setting [8]) came out at 100%; in experiment [5] (setting [9]) it was 100%; in experiment [5] (0.1 mg/kg ADAC 1 hour post ischemia), 80%; in experiment [5] (setting [10]), 80%; in experiment [5] (setting [11]) it was 60%; in experiment [5] (setting [12]), 50%. Besides, the “Survival Rate 24 h postischemia” value in experiment [5] (setting [13]) turned out to be 60%. Moreover, the “Survival Rate 14 days postischemia” value in experiment [5] (setting [8]) worked out at 70%; in experiment [5] (setting [9]), 90%; in experiment [5] (setting [10]), 80%; in experiment [5] (setting [11]), 50%; in experiment [5] (setting [12]), 50%; in experiment [5] (setting [13]), 50%. The survival rate was found to be 30% in experiment [6] (0.025 mg/kg) and 60% in experiment [6] (0.050 mg/kg). Besides, in experiment [6] (75, 100, or 200 mg/kg (so in the source)), the “survival rate (plateau)” value came out at 80%. Moreover, the “survival rate after chronic treatment followed by ischemia” value in experiment [7] (FIG. 7A) was “attenuated the effects of brain ischemia”. Moreover, in experiment [7] (FIG. 7B), the “neuronal loss after chronic treatment followed by ischemia” value is given as “attenuated the effects of brain ischemia”.
